Assay results reported in patent publication US4619925A, “3-Propenyl cephalosporin derivatives” (priority 1985, dated 1986).
Values after ≈ are worked out from the molar mass of the structure shown.

What was measured:
Mouse blood levels = test: Mouse blood levels
Text: Table 3 contains comparative blood level data for mice treated orally and intramuscularly with the hydroxyphenylglycyl derivatives.

H. influenzae A9833 = test: In vitro activity against fastidious bacteria; assay type: cell-based; settings: Haemophilus influenzae; H. influenzae A9833; ampicillin-sensitive (ABPC-S); read-out: MIC
Text: (§1) Table 5 contains comparative data for in vitro antibacterial activity against fastidious bacteria.

H. influenzae A22482 = test: In vitro activity against fastidious bacteria; assay type: cell-based; settings: Haemophilus influenzae, A22482
Text: as §1

H. influenzae A22481 = test: In vitro activity against fastidious bacteria; assay type: cell-based; settings: Haemophilus influenzae, ampicillin-resistant (ABPC-R)
Text: as §1

N. gonorrheae A20143 = test: In vitro activity against fastidious bacteria; assay type: cell-based; settings: N. gonorrheae A20143; read-out: MIC
Text: as §1

S. pneumoniae Type I = test: In vitro activity against fastidious bacteria; assay type: cell-based; settings: Streptococcus pneumoniae; S. pneumoniae Type I; read-out: MIC
Text: as §1

N. gonorrheae A15112 = test: In vitro activity against fastidious bacteria; assay type: cell-based; settings: N. gonorrheae A15112; read-out: MIC
Text: as §1

N. meningitidis A21487 = test: In vitro activity against fastidious bacteria; assay type: cell-based; settings: Neisseria meningitidis; N. meningitidis A21487; read-out: MIC
Text: as §1

H. influenzae A22157 = test: In vitro activity against fastidious bacteria; assay type: cell-based; settings: Haemophilus influenzae, ampicillin-resistant (ABPC-R)
Text: as §1

N. gonorrheae A20155 = test: In vitro activity against fastidious bacteria; assay type: cell-based; settings: N. gonorrheae A20155; read-out: MIC
Text: as §1

N. gonorrheae A20154 = test: In vitro activity against fastidious bacteria; assay type: cell-based; settings: N. gonorrheae A20154; read-out: MIC
Text: as §1

N. meningitidis A21497 = test: In vitro activity against fastidious bacteria; assay type: cell-based; settings: Neisseria meningitidis; N. meningitidis A21497; read-out: MIC
Text: as §1

N. meningitidis A20049 = test: In vitro activity against fastidious bacteria; assay type: cell-based; settings: Neisseria meningitidis; N. meningitidis A20049; read-out: MIC
Text: as §1

S. pyogenes A20065 = test: In vitro activity against fastidious bacteria; assay type: cell-based; settings: Streptococcus pyogenes; S. pyogenes A20065; read-out: MIC
Text: as §1

S. pyogenes A15040 = test: In vitro activity against fastidious bacteria; assay type: cell-based; settings: Streptococcus pyogenes; S. pyogenes A15040; read-out: MIC
Text: as §1

H. influenzae A22483 = test: In vitro activity against fastidious bacteria; assay type: cell-based; settings: Haemophilus influenzae, A22483
Text: as §1

S. pyogenes A20201 = test: In vitro activity against fastidious bacteria; assay type: cell-based; settings: Streptococcus pyogenes; S. pyogenes A20201; read-out: MIC
Text: as §1

S. pyogenes s-23 = test: In vitro activity against fastidious bacteria; assay type: cell-based; settings: Streptococcus pyogenes, S23; S. pyogenes s-23; read-out: MIC
Text: as §1

S. pneumoniae Type II = test: In vitro activity against fastidious bacteria; assay type: cell-based; settings: Streptococcus pneumoniae; S. pneumoniae Type II; read-out: MIC
Text: as §1

H. influenzae A22491 = test: In vitro activity against fastidious bacteria; assay type: cell-based; settings: Haemophilus influenzae, ampicillin-resistant (ABPC-R)
Text: as §1

H. influenzae A20193 = test: In vitro activity against fastidious bacteria; assay type: cell-based; settings: Haemophilus influenzae; H. influenzae A20193; ampicillin-sensitive (ABPC-S); read-out: MIC
Text: as §1

S. pneumoniae A9585 = test: In vitro activity against fastidious bacteria; assay type: cell-based; settings: Streptococcus pneumoniae; S. pneumoniae A9585; read-out: MIC
Text: as §1

S. pyogenes A9604 = test: In vitro activity against fastidious bacteria; assay type: cell-based; settings: Streptococcus pyogenes; S. pyogenes A9604; read-out: MIC
Text: as §1

H. influenzae A9729 = test: In vitro activity against fastidious bacteria; assay type: cell-based; settings: Haemophilus influenzae; H. influenzae A9729; ampicillin-sensitive (ABPC-S); read-out: MIC
Text: as §1

H. influenzae A20177 = test: In vitro activity against fastidious bacteria; assay type: cell-based; settings: Haemophilus influenzae; H. influenzae A20177; ampicillin-sensitive (ABPC-S); read-out: MIC
Text: as §1

S. pneumoniae A20759 = test: In vitro activity against fastidious bacteria; assay type: cell-based; settings: Streptococcus pneumoniae; S. pneumoniae A20759; read-out: MIC
Text: as §1

S. pyogenes Dick = test: In vitro activity against fastidious bacteria; assay type: cell-based; settings: Streptococcus pyogenes; S. pyogenes Dick; read-out: MIC
Text: as §1

[1] = test system: Gn-Ia organisms (Gram-negative bacteria sensitive to ampicillin and cephalothin); test: In vitro activity, agar dilution, group of five strains; assay type: cell-based
Text: Each of these groups of organisms is constituted of five individual strains of microorganism. The Gp-Ia organisms are Gram-positive staphylococci which are sensitive to penicillin. The Gp-Ib organisms are Gram-positive staphylococci which are resistant to penicillin and produce penicillinase. The Gn-Ia organisms are Gram-negative bacteria which are sensitive to ampicillin and cephalothin. The Gn-Ib organisms are Gram-negative bacteria which are resistant to ampicillin and cephalothin.

**Q.** Which results are given for C/C=C\C1=C(C(=O)O)N2C(=O)C(NC(=O)[C@H](N)c3cccc(O)c3)[C@H]2SC1 (some centres unmarked) [BMY-28272, 7-[(D)-2-amino-2-(3-hydroxyphenyl)acetamido]-3-[(Z)-1-propenyl]-3-cephem-4-carboxylic acid]?
**A.** AUC relative to BMY-28100 (Mouse blood levels; 20 mg/kg intramuscularly): greater AUC value; T1/2 relative to BMY-28100 (Mouse blood levels; 20 mg/kg intramuscularly): longer T1/2 than BMY-28100; AUC relative to BMY-28100 (Mouse blood levels; 100 mg/kg orally): greater AUC value; T1/2 relative to BMY-28100 (Mouse blood levels; 100 mg/kg orally): somewhat shorter T1/2 than BMY-28100; duration of blood levels relative to BMY-28100 (Mouse blood levels; 100 mg/kg orally): longer duration of blood levels; antibiotic concentrations in the bloodstream (Mouse blood levels; following oral administration, summary statement): prolonged antibiotic concentrations in the bloodstream following oral administration; concentration at 10 min (Mouse blood levels; mouse, blood, im, 20 mg/kg): 20 µg/mL; concentration at 20 min (Mouse blood levels; mouse, blood, im, 20 mg/kg): 17 µg/mL; concentration at 0.5 h (Mouse blood levels; mouse, blood, im, 20 mg/kg): 17 µg/mL; concentration at 40 min (Mouse blood levels; mouse, blood, im, 20 mg/kg): 12 µg/mL; concentration at 50 min (Mouse blood levels; mouse, blood, im, 20 mg/kg): 11 µg/mL; concentration at 1 h (Mouse blood levels; mouse, blood, im, 20 mg/kg): 9.4 µg/mL; concentration at 1.5 h (Mouse blood levels; mouse, blood, im, 20 mg/kg): 4.8 µg/mL; concentration at 2 h (Mouse blood levels; mouse, blood, im, 20 mg/kg): 2.6 µg/mL; AUC (Mouse blood levels; mouse, blood, im, 20 mg/kg, 20 mg/kg i.m.): 20 µg·h/mL; half-life (Mouse blood levels; mouse, blood, im, 20 mg/kg, T 1/2, 20 mg/kg i.m.): 36 min; Cmax (Mouse blood levels; mouse, blood, po, 20 mg/kg): 9.6 µg/mL; concentration at 0.5 h (Mouse blood levels; mouse, blood, po, 20 mg/kg): 7.7 µg/mL; concentration at 1 h (Mouse blood levels; mouse, blood, po, 20 mg/kg): 4.2 µg/mL; concentration at 2 h (Mouse blood levels; mouse, blood, po, 20 mg/kg): 1.6 µg/mL; concentration at 3 h (Mouse blood levels; mouse, blood, po, 20 mg/kg): 0.62 µg/mL; concentration at 4 h (Mouse blood levels; mouse, blood, po, 20 mg/kg): 0.22 µg/mL; concentration at 5 h (Mouse blood levels; mouse, blood, po, 20 mg/kg): 0.13 µg/mL; concentration at 6 h (Mouse blood levels; mouse, blood, po, 20 mg/kg): 0.082 µg/mL; AUC (Mouse blood levels; mouse, blood, po, 20 mg/kg, 20 mg/kg p.o.): 9.7 µg·h/mL; AUC (Mouse blood levels; mouse, blood, po, 20 mg/kg, 20 mg/kg p.o., another experiment (footnote)): 17 µg·h/mL; half-life (Mouse blood levels; mouse, blood, po, 20 mg/kg, T 1/2, 20 mg/kg p.o.): 51.6 min; half-life (Mouse blood levels; mouse, blood, po, 20 mg/kg, T 1/2, 20 mg/kg p.o., another experiment (footnote)): 60 min; concentration at 0.5 h (Mouse blood levels; mouse, blood, po, 100 mg/kg): 23 µg/mL; concentration at 1 h (Mouse blood levels; mouse, blood, po, 100 mg/kg): 22 µg/mL; concentration at 2 h (Mouse blood levels; mouse, blood, po, 100 mg/kg): 16 µg/mL; concentration at 3 h (Mouse blood levels; mouse, blood, po, 100 mg/kg): 10 µg/mL; concentration at 4 h (Mouse blood levels; mouse, blood, po, 100 mg/kg): 6.3 µg/mL; concentration at 5 h (Mouse blood levels; mouse, blood, po, 100 mg/kg): 3.1 µg/mL; concentration at 6 h (Mouse blood levels; mouse, blood, po, 100 mg/kg): 2.8 µg/mL; concentration at 7 h (Mouse blood levels; mouse, blood, po, 100 mg/kg): 2.5 µg/mL; AUC (Mouse blood levels; mouse, blood, po, 100 mg/kg, 100 mg/kg p.o.): 71 µg·h/mL; half-life (Mouse blood levels; mouse, blood, po, 100 mg/kg, T 1/2, 100 mg/kg p.o.): 102 min; MIC (H. influenzae A9833): 0.4 mg/L (≈ 1.03 µM); MIC (H. influenzae A22482): 0.4 mg/L (≈ 1.03 µM); MIC (H. influenzae A22481): 0.8 mg/L (≈ 2.05 µM); MIC (N. gonorrheae A20143): 0.8 mg/L (≈ 2.05 µM); MIC (S. pneumoniae Type I): 0.1 mg/L (≈ 0.257 µM); MIC (N. gonorrheae A15112): 0.4 mg/L (≈ 1.03 µM); MIC (N. meningitidis A21487): 0.8 mg/L (≈ 2.05 µM); MIC (H. influenzae A22157): 0.4 mg/L (≈ 1.03 µM); MIC (N. gonorrheae A20155): 0.4 mg/L (≈ 1.03 µM); MIC (N. gonorrheae A20154): 0.8 mg/L (≈ 2.05 µM); MIC (N. meningitidis A21497): 0.4 mg/L (≈ 1.03 µM); MIC (N. meningitidis A20049): 0.8 mg/L (≈ 2.05 µM); MIC (S. pyogenes A20065): 0.05 mg/L (≈ 0.128 µM); MIC (S. pyogenes A15040): 0.05 mg/L (≈ 0.128 µM); MIC (H. influenzae A22483): 0.4 mg/L (≈ 1.03 µM); MIC (S. pyogenes A20201): 0.05 mg/L (≈ 0.128 µM); MIC (S. pyogenes s-23): 0.05 mg/L (≈ 0.128 µM); MIC (S. pneumoniae Type II): 0.1 mg/L (≈ 0.257 µM); MIC (H. influenzae A22491): 0.8 mg/L (≈ 2.05 µM); MIC (H. influenzae A20193): 0.8 mg/L (≈ 2.05 µM); MIC (S. pneumoniae A9585): 0.1 mg/L (≈ 0.257 µM); MIC (S. pyogenes A9604): 0.05 mg/L (≈ 0.128 µM); MIC (H. influenzae A9729): 0.4 mg/L (≈ 1.03 µM); MIC (H. influenzae A20177): 0.8 mg/L (≈ 2.05 µM); MIC (S. pneumoniae A20759): 0.4 mg/L (≈ 1.03 µM); MIC (S. pyogenes Dick): 0.05 mg/L (≈ 0.128 µM); activity relative to cephalexin and cefaclor [1]: more active than cephalexin and slightly better than cefaclor
